From patent publication US6737383B1, “Herbicidal oxadiazolidines” (priority 1999, dated 2004)

Assays:
cocklebur = test: Test B pre/postemergence cocklebur; assay type: in vivo, Xanthium strumarium
Method in brief: (§1)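 Test chemicals in a non-phytotoxic solvent mixture with surfactant were sprayed preemergence onto planted seeds and postemergence onto plants 2 to 18 cm tall (1- to 4-leaf stage). After twelve to sixteen days in a greenhouse, injury was visually rated against untreated controls from 0 (no effect) to 10 (complete control).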

rape = test: Test B pre/postemergence rape; assay type: in vivo, Brassica napus
Method in brief: as §1

wild oat = test: Test B pre/postemergence wild oat; assay type: in vivo, Avena fatua
Method in brief: as §1

corn = test: Test B pre/postemergence corn; assay type: in vivo, Zea mays
Method in brief: as §1

wheat = test: Test B pre/postemergence wheat; assay type: in vivo, Triticum aestivum
Method in brief: as §1

soybean = test: Test B pre/postemergence soybean; assay type: in vivo, Glycine max
Method in brief: as §1

rice = test: Test B flood test rice; assay type: in vivo, Oryza sativa
Method in brief: (§2)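 Flood test on plants grown to the 2-leaf stage; treated plants kept in greenhouse twelve to sixteen days, then visually rated against controls on a 0 (no effect) to 10 (complete control) scale.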

duck salad = test: Test B flood test duck salad; assay type: in vivo, Heteranthera limosa
Method in brief: as §2

smallflower flatsedge = test: Test B flood test smallflower flatsedge; assay type: in vivo, Cyperus difformis
Method in brief: as §2

velvetleaf = test: Test B pre/postemergence velvetleaf; assay type: in vivo, Abutilon theophrasti
Method in brief: as §1

purple nutsedge = test: Test B pre/postemergence purple nutsedge; assay type: in vivo, Cyperus rotundus
Method in brief: as §1

pigweed = test: Test B pre/postemergence pigweed; assay type: in vivo, Amaranthus retroflexus
Method in brief: as §1

bedstraw = test: Test B pre/postemergence bedstraw; assay type: in vivo, Galium aparine; settings: Rate 62 g/ha, Postemergence; scale 0 to 10, 0 no effect, 10 complete control
Method in brief: as §1

giant foxtail = test: Test B pre/postemergence giant foxtail; assay type: in vivo, Setaria faberii
Method in brief: as §1

sugar beet = test: Test B pre/postemergence sugar beet; assay type: in vivo, Beta vulgaris
Method in brief: as §1

surinam grass = test: Test B pre/postemergence surinam grass; assay type: in vivo, Brachiaria decumbens
Method in brief: as §1

[1] = Postemergence, Rate 250 g/ha, scale 0 to 10
[2] = Postemergence, Rate 500 g/ha, scale of 0 to 10 where 0 is no effect and 10 is complete control
[3] = Preemergence, Rate 62 g/ha, scale of 0 to 10 where 0 is no effect and 10 is complete control
[4] = Preemergence, Rate 125 g/ha, scale of 0 to 10 where 0 is no effect and 10 is complete control
[5] = Preemergence, Rate 250 g/ha, scale 0 to 10, 0 is no effect, 10 is complete control
[6] = Preemergence, Rate 500 g/ha, scale 0 to 10, 0 is no effect, 10 is complete control
[7] = Rate 62 g/ha, Postemergence, scale 0 to 10, 0 no effect, 10 complete control
[8] = Rate 125 g/ha, Postemergence, scale 0 to 10, 0 is no effect, 10 is complete control
[9] = Rate 62 g/ha, flood test species, Pre-emergence, visual evaluation after twelve to sixteen days
[10] = Rate 125 g/ha, under heading Pre-emergence, flood test species, visual evaluation after twelve to sixteen days
[11] = Rate 250 g/ha, Pre-emergence (flood test species), scale 0 to 10, 0 is no effect, 10 is complete control
[12] = Rate 500 g/ha, Pre-emergence, flood test species, scale 0 to 10 (0 no effect, 10 complete control)

Cc1nc(C)c(C(C)n2c(=O)on(C(=O)N(c3ccc(F)cc3F)C(C)C)c2=O)s1 (stereo not shown) [Compound 443]
Cocklebur plant response rating (cocklebur; [1]): 0 | Cocklebur plant response rating (cocklebur; [2]): 0 | Plant response rating, Cocklebur (cocklebur; [3]): 0 | Plant response rating, Cocklebur (cocklebur; [4]): 0 | Cocklebur plant response rating (cocklebur; [5]): 0 | Cocklebur plant response rating (cocklebur; [6]): 0 | Cocklebur plant response rating (cocklebur; [7]): 0 | Cocklebur plant response rating (cocklebur; [8]): 0 | Rape plant response rating (rape; [1]): 0 | Rape plant response rating (rape; [2]): 0 | Plant response rating, Rape (rape; [3]): 0 | Plant response rating, Rape (rape; [4]): 0 | Rape plant response rating (rape; [5]): 0 | Rape plant response rating (rape; [6]): 0 | Rape plant response rating (rape; [7]): 0 | Rape plant response rating (rape; [8]): 0 | Wild oats plant response rating (wild oat; [1]): 0 | Wild oats plant response rating (wild oat; [2]): 0 | Plant response rating, Wild oats (wild oat; [3]): 0 | Plant response rating, Wild oats (wild oat; [4]): 0 | Wild oats plant response rating (wild oat; [5]): 0 | Wild oats plant response rating (wild oat; [6]): 0 | Wild oats plant response rating (wild oat; [7]): 0 | Wild oats plant response rating (wild oat; [8]): 0 | Corn plant response rating (corn; [1]): 0 | Corn plant response rating (corn; [2]): 0 | Plant response rating, Corn (corn; [3]): 0 | Plant response rating, Corn (corn; [4]): 0 | Corn plant response rating (corn; [5]): 0 | Corn plant response rating (corn; [6]): 0 | Corn plant response rating (corn; [7]): 0 | Corn plant response rating (corn; [8]): 0 | Wheat plant response rating (wheat; [1]): 0 | Wheat plant response rating (wheat; [2]): 0 | Plant response rating, Wheat (wheat; [3]): 0 | Plant response rating, Wheat (wheat; [4]): 0 | Wheat plant response rating (wheat; [5]): 0 | Wheat plant response rating (wheat; [6]): 0 | Wheat plant response rating (wheat; [7]): 0 | Wheat plant response rating (wheat; [8]): 0 | Soybean plant response rating (soybean; [1]): 1 | Soybean plant response rating (soybean; [2]): 2 | Plant response rating, Soybean (soybean; [3]): 0 | Plant response rating, Soybean (soybean; [4]): 0 | Soybean plant response rating (soybean; [5]): 0 | Soybean plant response rating (soybean; [6]): 0 | Soybean plant response rating (soybean; [7]): 1 | Soybean plant response rating (soybean; [8]): 1 | Plant response rating, Rice (0 to 10 scale, 0 is no effect, 10 is complete control) (rice; [9]): 0 | Rice plant response rating (0 to 10 scale, 0 is no effect, 10 is complete control) (rice; [10]): 0 | Rice plant response rating (rice; [11]): 0 | Rice plant response rating (rice; [12]): 0 | Plant response rating, Ducksalad (0 to 10 scale, 0 is no effect, 10 is complete control) (duck salad; [9]): 0 | Ducksalad plant response rating (0 to 10 scale, 0 is no effect, 10 is complete control) (duck salad; [10]): 0 | Ducksalad plant response rating (duck salad; [11]): 0 | Ducksalad plant response rating (duck salad; [12]): 0 | Plant response rating, S. Flatsedge (0 to 10 scale, 0 is no effect, 10 is complete control) (smallflower flatsedge; [9]): 0 | S. Flatsedge plant response rating (0 to 10 scale, 0 is no effect, 10 is complete control) (smallflower flatsedge; [10]): 0 | S. Flatsedge plant response rating (smallflower flatsedge; [11]): 0 | S. Flatsedge plant response rating (smallflower flatsedge; [12]): 0 | Velvetleaf plant response rating (velvetleaf; [1]): 0 | Velvetleaf plant response rating (velvetleaf; [2]): 0 | Plant response rating, Velvetleaf (velvetleaf; [3]): 0 | Plant response rating, Velvetleaf (velvetleaf; [4]): 0 | Velvetleaf plant response rating (velvetleaf; [5]): 0 | Velvetleaf plant response rating (velvetleaf; [6]): 0 | Velvetleaf plant response rating (velvetleaf; [7]): 0 | Velvetleaf plant response rating (velvetleaf; [8]): 0 | Nutsedge plant response rating (purple nutsedge; [1]): 0 | Nutsedge plant response rating (purple nutsedge; [2]): 0 | Plant response rating, Nutsedge (purple nutsedge; [3]): 0 | Plant response rating, Nutsedge (purple nutsedge; [4]): 0 | Nutsedge plant response rating (purple nutsedge; [5]): 0 | Nutsedge plant response rating (purple nutsedge; [6]): 0 | Nutsedge plant response rating (purple nutsedge; [7]): 0 | Nutsedge plant response rating (purple nutsedge; [8]): 0 | Redroot pigweed plant response rating (pigweed; [1]): 0 | Redroot pigweed plant response rating (pigweed; [2]): 0 | Plant response rating, Redroot pigweed (pigweed; [3]): 0 | Plant response rating, Redroot pigweed (pigweed; [4]): 0 | Redroot pigweed plant response rating (pigweed; [5]): 0 | Redroot pigweed plant response rating (pigweed; [6]): 6 | Redroot pigweed plant response rating (pigweed; [7]): 0 | Redroot pigweed plant response rating (pigweed; [8]): 0 | Bedstraw plant response rating (bedstraw): 0 | Giant foxtail plant response rating (giant foxtail; [1]): 0 | Giant foxtail plant response rating (giant foxtail; [2]): 0 | Plant response rating, Giant foxtail (giant foxtail; [3]): 3 | Plant response rating, Giant foxtail (giant foxtail; [4]): 4 | Giant foxtail plant response rating (giant foxtail; [5]): 10 | Giant foxtail plant response rating (giant foxtail; [6]): 10 | Giant foxtail plant response rating (giant foxtail; [7]): 0 | Giant foxtail plant response rating (giant foxtail; [8]): 0 | Sugarbeets plant response rating (sugar beet; [1]): 0 | Sugarbeets plant response rating (sugar beet; [2]): 0 | Plant response rating, Sugarbeets (sugar beet; [3]): 0 | Plant response rating, Sugarbeets (sugar beet; [4]): 0 | Sugarbeets plant response rating (sugar beet; [5]): 0 | Sugarbeets plant response rating (sugar beet; [6]): 0 | Sugarbeets plant response rating (sugar beet; [7]): 0 | Sugarbeets plant response rating (sugar beet; [8]): 0 | B. signalgrass plant response rating (surinam grass; Postemergence, Rate 250 g/ha, scale 0 to 10, 0 no effect, 10 complete control): 0 | B. signalgrass plant response rating (surinam grass; [2]): 0 | Plant response rating, B. signalgrass (surinam grass; [3]): 0 | Plant response rating, B. signalgrass (surinam grass; [4]): 0 | B. signalgrass plant response rating (surinam grass; [5]): 0 | B. signalgrass plant response rating (surinam grass; [6]): 10 | B. signalgrass plant response rating (surinam grass; [7]): 0 | B. signalgrass plant response rating (surinam grass; [8]): 0
